Laboratory results reported in ChEMBL document CHEMBL4507317, “Data for DCP probe BAY-899” (2021).

How the values were obtained:
[1] = target: Serine/threonine-protein kinase MRCK gamma (Homo sapiens) (UniProt Q6DT37); details: Compound concentration 1000.0 nM
[2] = target: Tyrosine-protein kinase Fyn (Homo sapiens) (UniProt P06241); details: Compound concentration 1000.0 nM
[3] = target: cAMP-dependent protein kinase catalytic subunit beta (Homo sapiens) (UniProt P22694); details: Compound concentration 1000.0 nM
[4] = tested on: Epidermal growth factor receptor (Homo sapiens), P00533 [UNDEFINED MUTATION]; details: Compound concentration 1000.0 nM
[5] = target: Serine/threonine-protein kinase 38 (Homo sapiens) (UniProt Q15208); details: Compound concentration 1000.0 nM
[6] = target: Casein kinase I isoform alpha-like (Homo sapiens) (UniProt Q8N752); details: Compound concentration 1000.0 nM
Chain of Casein kinase I isoform alpha-like (Homo sapiens) (Q8N752 whole entry, canonical isoform): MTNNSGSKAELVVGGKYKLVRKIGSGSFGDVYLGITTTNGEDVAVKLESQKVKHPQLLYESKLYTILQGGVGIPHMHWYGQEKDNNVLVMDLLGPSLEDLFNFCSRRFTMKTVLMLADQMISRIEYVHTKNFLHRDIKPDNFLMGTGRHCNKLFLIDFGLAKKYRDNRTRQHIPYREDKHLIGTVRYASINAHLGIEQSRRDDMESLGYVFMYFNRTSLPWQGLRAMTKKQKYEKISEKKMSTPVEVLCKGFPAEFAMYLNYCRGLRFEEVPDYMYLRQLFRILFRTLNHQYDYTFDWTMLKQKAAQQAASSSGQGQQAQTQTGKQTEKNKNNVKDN

[7] = target: Platelet-derived growth factor receptor beta (Homo sapiens) (UniProt P09619); details: Compound concentration 1000.0 nM
[8] = tested on: Epidermal growth factor receptor (Homo sapiens), P00533 [G719S]; details: Compound concentration 1000.0 nM
[9] = target: Mitogen-activated protein kinase 3 (Homo sapiens) (UniProt P27361); details: Compound concentration 1000.0 nM
[10] = target: Testis-specific serine/threonine-protein kinase 1 (Homo sapiens) (UniProt Q9BXA7); details: Compound concentration 1000.0 nM
[11] = target: Tyrosine-protein kinase SYK (Homo sapiens) (UniProt P43405); details: Compound concentration 1000.0 nM
[12] = target: Serine/threonine-protein kinase DCLK2 (Homo sapiens) (UniProt Q8N568); details: Compound concentration 1000.0 nM
[13] = tested on: Tyrosine-protein kinase ABL1 (Homo sapiens), P00519 [T315I]; details: Compound concentration 1000.0 nM
[14] = target: Ephrin type-B receptor 2 (Homo sapiens) (UniProt P29323); details: Compound concentration 1000.0 nM
[15] = target: D(2) dopamine receptor (Homo sapiens) (UniProt P14416); details: Compound concentration 10.0 uM
[16] = tested on: Tyrosine-protein kinase ABL1 (Homo sapiens), P00519 [Q252H]; details: Compound concentration 1000.0 nM
[17] = target: Vascular endothelial growth factor receptor 3 (Homo sapiens) (UniProt P35916); details: Compound concentration 1000.0 nM
[18] = target: Cyclin-dependent kinase 9 (Homo sapiens) (UniProt P50750); details: Compound concentration 1000.0 nM
Chain of Cyclin-dependent kinase 9 (Homo sapiens) (P50750 whole entry): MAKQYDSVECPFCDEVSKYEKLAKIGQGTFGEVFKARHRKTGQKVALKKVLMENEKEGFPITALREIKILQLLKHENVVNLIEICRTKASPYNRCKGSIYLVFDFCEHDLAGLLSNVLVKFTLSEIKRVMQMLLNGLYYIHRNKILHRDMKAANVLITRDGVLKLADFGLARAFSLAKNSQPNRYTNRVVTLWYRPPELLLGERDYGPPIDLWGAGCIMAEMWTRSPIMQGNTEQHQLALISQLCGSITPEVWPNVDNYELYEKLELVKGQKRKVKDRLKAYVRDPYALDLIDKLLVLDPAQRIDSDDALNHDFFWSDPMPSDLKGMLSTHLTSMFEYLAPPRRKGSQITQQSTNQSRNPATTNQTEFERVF

[19] = target: Sodium-dependent noradrenaline transporter (Homo sapiens) (UniProt P23975); details: Compound concentration 10.0 uM
[20] = target: Phosphatidylinositol 4,5-bisphosphate 3-kinase catalytic subunit alpha isoform (Homo sapiens) (UniProt P42336); details: Compound concentration 1000.0 nM
[21] = target: Casein kinase II subunit alpha' (Homo sapiens) (UniProt P19784); details: Compound concentration 1000.0 nM
[22] = target: Mitogen-activated protein kinase kinase kinase 11 (Homo sapiens) (UniProt Q16584); details: Compound concentration 1000.0 nM
[23] = target: Hepatocyte growth factor receptor (Homo sapiens) (UniProt P08581); details: Compound concentration 1000.0 nM
Chain of Hepatocyte growth factor receptor (Homo sapiens) (P08581 whole entry): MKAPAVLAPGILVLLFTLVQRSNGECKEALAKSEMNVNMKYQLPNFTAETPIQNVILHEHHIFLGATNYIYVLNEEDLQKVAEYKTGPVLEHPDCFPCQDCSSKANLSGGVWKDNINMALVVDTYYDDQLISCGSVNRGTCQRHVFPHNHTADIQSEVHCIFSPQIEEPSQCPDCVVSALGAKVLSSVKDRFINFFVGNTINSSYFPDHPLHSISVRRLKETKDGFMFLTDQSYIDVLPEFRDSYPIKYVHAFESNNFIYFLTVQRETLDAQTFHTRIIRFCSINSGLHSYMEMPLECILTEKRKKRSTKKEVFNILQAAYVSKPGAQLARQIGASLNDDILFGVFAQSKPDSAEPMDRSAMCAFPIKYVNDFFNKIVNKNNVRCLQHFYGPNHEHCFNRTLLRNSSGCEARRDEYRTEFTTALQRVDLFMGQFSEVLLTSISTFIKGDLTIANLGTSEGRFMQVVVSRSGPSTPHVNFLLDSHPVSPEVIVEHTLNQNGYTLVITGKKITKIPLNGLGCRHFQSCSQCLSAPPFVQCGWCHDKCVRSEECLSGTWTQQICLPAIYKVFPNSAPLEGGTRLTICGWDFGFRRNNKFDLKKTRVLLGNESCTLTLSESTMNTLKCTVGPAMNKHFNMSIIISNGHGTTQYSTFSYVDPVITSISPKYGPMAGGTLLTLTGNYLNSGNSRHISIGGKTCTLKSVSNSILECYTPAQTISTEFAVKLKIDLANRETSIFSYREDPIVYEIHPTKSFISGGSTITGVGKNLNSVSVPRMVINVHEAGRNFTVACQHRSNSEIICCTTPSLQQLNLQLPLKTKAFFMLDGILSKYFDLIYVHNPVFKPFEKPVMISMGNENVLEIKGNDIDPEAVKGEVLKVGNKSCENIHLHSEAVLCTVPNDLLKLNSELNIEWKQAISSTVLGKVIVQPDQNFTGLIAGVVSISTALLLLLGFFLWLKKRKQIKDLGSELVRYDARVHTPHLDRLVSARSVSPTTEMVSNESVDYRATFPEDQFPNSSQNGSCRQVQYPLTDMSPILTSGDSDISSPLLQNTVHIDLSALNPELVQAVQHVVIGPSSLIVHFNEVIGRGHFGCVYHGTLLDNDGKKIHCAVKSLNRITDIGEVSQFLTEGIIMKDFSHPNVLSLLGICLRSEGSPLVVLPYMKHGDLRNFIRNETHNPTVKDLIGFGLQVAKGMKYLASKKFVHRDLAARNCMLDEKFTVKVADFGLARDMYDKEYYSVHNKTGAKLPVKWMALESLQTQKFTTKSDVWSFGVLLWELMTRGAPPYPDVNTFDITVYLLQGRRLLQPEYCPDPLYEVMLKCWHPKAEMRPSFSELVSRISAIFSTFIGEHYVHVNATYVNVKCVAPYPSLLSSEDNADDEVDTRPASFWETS

[24] = target: Ephrin type-A receptor 5 (Homo sapiens) (UniProt P54756); details: Compound concentration 1000.0 nM
[25] = target: Dual specificity mitogen-activated protein kinase kinase 7 (Homo sapiens) (UniProt O14733); details: Compound concentration 1000.0 nM
Chain of Dual specificity mitogen-activated protein kinase kinase 7 (Homo sapiens) (O14733 whole entry): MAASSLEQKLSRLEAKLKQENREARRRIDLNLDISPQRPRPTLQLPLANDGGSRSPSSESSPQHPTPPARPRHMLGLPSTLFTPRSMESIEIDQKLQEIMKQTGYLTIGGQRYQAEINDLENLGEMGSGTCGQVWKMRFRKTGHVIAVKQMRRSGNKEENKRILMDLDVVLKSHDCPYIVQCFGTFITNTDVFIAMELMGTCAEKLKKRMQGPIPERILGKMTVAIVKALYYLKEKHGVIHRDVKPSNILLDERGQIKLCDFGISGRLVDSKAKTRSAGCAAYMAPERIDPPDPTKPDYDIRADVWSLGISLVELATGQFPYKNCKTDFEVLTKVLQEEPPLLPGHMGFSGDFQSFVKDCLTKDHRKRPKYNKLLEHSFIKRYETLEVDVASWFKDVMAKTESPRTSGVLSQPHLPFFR

[26] = target: Serine/threonine-protein kinase MAK (Homo sapiens) (UniProt P20794); details: Compound concentration 1000.0 nM
[27] = target: Receptor tyrosine-protein kinase erbB-2 (Homo sapiens) (UniProt P04626); details: Compound concentration 1000.0 nM
[28] = target: Serine/threonine-protein kinase 3 (Homo sapiens) (UniProt Q13188); details: Compound concentration 1000.0 nM
[29] = tested on: Tyrosine-protein kinase ABL1 (Homo sapiens), P00519 [F317L]; details: Compound concentration 1000.0 nM
[30] = target: Fibroblast growth factor receptor 2 (Homo sapiens) (UniProt P21802); details: Compound concentration 1000.0 nM
Chain of Fibroblast growth factor receptor 2 (Homo sapiens) (P21802 22-821 limits assumed): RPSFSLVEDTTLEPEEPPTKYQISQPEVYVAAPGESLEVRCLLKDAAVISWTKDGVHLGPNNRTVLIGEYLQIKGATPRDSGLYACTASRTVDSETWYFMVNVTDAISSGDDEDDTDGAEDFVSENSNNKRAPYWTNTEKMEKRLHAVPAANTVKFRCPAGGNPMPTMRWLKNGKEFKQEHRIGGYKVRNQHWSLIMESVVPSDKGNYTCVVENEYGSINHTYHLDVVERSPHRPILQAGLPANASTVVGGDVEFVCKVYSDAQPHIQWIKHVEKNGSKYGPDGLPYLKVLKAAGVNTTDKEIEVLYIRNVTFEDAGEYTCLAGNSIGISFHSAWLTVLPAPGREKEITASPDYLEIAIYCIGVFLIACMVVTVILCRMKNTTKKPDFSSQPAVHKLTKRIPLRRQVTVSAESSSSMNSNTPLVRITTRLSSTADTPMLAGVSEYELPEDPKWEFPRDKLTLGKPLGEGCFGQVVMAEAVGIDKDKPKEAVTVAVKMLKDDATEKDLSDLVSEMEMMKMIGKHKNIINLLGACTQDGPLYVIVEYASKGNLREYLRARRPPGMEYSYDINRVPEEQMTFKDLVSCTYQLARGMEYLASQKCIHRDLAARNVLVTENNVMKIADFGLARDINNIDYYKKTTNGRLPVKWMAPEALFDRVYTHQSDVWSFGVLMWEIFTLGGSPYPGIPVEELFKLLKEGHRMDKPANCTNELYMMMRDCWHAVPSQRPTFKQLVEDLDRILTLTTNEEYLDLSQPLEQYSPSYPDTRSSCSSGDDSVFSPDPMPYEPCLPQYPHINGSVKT

[31] = target: cAMP-dependent protein kinase catalytic subunit PRKX (Homo sapiens) (UniProt P51817); details: Compound concentration 1000.0 nM
[32] = target: Serine/threonine-protein kinase BRSK2 (Homo sapiens) (UniProt Q8IWQ3); details: Compound concentration 1000.0 nM
[33] = target: Mitogen-activated protein kinase 4 (Homo sapiens) (UniProt P31152); details: Compound concentration 1000.0 nM
Chain of Mitogen-activated protein kinase 4 (Homo sapiens) (P31152 whole entry): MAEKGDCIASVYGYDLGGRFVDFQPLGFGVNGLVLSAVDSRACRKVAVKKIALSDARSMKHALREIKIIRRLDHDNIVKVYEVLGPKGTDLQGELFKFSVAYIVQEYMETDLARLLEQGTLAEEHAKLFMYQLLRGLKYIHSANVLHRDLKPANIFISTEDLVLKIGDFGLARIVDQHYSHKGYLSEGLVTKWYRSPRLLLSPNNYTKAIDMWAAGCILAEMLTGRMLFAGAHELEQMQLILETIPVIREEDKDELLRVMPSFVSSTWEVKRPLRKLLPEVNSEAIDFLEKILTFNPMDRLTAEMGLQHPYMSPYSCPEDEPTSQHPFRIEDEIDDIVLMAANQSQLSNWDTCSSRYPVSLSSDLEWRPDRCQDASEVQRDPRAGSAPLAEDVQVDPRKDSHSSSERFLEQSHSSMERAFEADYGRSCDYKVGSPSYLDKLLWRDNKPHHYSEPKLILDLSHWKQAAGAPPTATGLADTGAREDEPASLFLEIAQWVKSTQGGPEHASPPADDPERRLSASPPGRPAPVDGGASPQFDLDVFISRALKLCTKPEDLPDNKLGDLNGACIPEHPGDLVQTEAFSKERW

[34] = target: Atypical kinase COQ8B, mitochondrial (Homo sapiens) (UniProt Q96D53); details: Compound concentration 1000.0 nM
[35] = target: 3-phosphoinositide-dependent protein kinase 1 (Homo sapiens) (UniProt O15530); details: Compound concentration 1000.0 nM
[36] = target: TGF-beta receptor type-1 (Homo sapiens) (UniProt P36897); details: Compound concentration 1000.0 nM
[37] = target: Ribosomal protein S6 kinase alpha-5 (Homo sapiens) (UniProt O75582); details: Compound concentration 1000.0 nM
Chain of Ribosomal protein S6 kinase alpha-5 (Homo sapiens) (O75582 whole entry, looked up): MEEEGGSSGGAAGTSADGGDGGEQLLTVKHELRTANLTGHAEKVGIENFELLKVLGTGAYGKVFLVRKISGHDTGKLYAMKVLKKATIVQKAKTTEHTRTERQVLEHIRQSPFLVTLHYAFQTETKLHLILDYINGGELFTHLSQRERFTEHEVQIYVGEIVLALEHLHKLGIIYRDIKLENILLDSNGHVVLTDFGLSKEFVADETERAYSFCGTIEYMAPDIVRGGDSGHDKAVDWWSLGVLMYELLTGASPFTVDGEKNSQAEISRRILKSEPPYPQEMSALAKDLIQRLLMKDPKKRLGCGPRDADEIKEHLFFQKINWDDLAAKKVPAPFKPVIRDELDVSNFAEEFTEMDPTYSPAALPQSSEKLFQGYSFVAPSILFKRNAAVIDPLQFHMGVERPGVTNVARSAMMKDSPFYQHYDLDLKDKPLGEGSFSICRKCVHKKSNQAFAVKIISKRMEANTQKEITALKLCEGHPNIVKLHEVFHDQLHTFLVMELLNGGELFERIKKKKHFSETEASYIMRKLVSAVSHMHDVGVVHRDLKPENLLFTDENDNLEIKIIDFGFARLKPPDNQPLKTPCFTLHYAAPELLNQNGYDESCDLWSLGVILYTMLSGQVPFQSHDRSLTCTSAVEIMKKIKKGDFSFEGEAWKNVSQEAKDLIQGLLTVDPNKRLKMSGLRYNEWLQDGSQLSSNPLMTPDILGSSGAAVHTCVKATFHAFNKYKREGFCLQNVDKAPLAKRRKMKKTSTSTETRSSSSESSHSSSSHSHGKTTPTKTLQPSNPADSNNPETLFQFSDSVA

[38] = target: Tyrosine-protein kinase JAK1 (Homo sapiens) (UniProt P23458); details: Compound concentration 1000.0 nM
[39] = target: Ribosomal protein S6 kinase alpha-5 (Homo sapiens) (UniProt O75582); details: Compound concentration 1000.0 nM; remark: listed apart in the source
[40] = target: Tyrosine-protein kinase HCK (Homo sapiens) (UniProt P08631); details: Compound concentration 1000.0 nM
[41] = target: Mast/stem cell growth factor receptor Kit (Homo sapiens) (UniProt P10721); details: Compound concentration 1000.0 nM
[42] = target: Calcium/calmodulin-dependent protein kinase type II subunit beta (Homo sapiens) (UniProt Q13554); details: Compound concentration 1000.0 nM
[43] = target: Ephrin type-B receptor 3 (Homo sapiens) (UniProt P54753); details: Compound concentration 1000.0 nM
[44] = target: Sigma intracellular receptor 2 (Homo sapiens, UniProt Q5BJF2); details: Compound concentration 10.0 uM
Chain of Sigma intracellular receptor 2 (Q5BJF2 whole entry): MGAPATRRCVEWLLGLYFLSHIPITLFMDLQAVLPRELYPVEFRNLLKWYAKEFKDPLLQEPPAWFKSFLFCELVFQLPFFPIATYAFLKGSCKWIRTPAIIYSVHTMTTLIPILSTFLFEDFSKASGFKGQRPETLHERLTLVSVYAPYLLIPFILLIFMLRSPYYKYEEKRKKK

[45] = target: Mitogen-activated protein kinase 13 (Homo sapiens) (UniProt O15264); details: Compound concentration 1000.0 nM

## O=C(Nc1ccc(Oc2ccc(F)cc2)cc1)N1CCc2ncccc2[C@H]1c1ccc(F)cc1 [BAY-897]
[1]
  residual activity: 93%
[2]
  residual activity: 89%
[3]
  residual activity: 83%
[4]
  residual activity: 80%
[5]
  residual activity: 99%
[6]
  residual activity: 92%
[7]
  residual activity: 100%
[8]
  residual activity: 74%
[9]
  residual activity: 87%
[10]
  residual activity: 87%
[11]
  residual activity: 91%
[12]
  residual activity: 87%
[13]
  residual activity: 98%
[14]
  residual activity: 91%
[15]
  inhibition: -3.97%
[16]
  residual activity: 88%
[17]
  residual activity: 96%
[18]
  residual activity: 87%
[19]
  inhibition: 32.5%
[20]
  residual activity: 83%
[21]
  residual activity: 100%
[22]
  residual activity: 78%
[23]
  residual activity: 100%
[24]
  residual activity: 100%
[25]
  residual activity: 100%
[26]
  residual activity: 100%
[27]
  residual activity: 100%
[28]
  residual activity: 94%
[29]
  residual activity: 70%
[30]
  residual activity: 93%
[31]
  residual activity: 88%
[32]
  residual activity: 95%
[33]
  residual activity: 95%
[34]
  residual activity: 92%
[35]
  residual activity: 88%
[36]
  residual activity: 85%
[37]
  residual activity: 74%
[38]
  residual activity: 100%
[39]
  residual activity: 95%
[40]
  residual activity: 100%
[41]
  residual activity: 97%
[42]
  residual activity: 100%
[43]
  residual activity: 100%
[44]
  inhibition: 80.8%
[45]
  residual activity: 96%

## O=C(Nc1cnc(Oc2ccc(F)cc2)nc1)N1CCc2ncccc2[C@@H]1c1ccc(F)cc1 [BAY-899]
[1]
  residual activity: 98%
[2]
  residual activity: 100%
[3]
  residual activity: 85%
[4]
  residual activity: 70%
[5]
  residual activity: 91%
[6]
  residual activity: 82%
[7]
  residual activity: 100%
[8]
  residual activity: 72%
[9]
  residual activity: 92%
[10]
  residual activity: 100%
[11]
  residual activity: 84%
[12]
  residual activity: 90%
[13]
  residual activity: 100%
[14]
  residual activity: 87%
[15]
  inhibition: 1.65%
[16]
  residual activity: 100%
[17]
  residual activity: 96%
[18]
  residual activity: 93%
[19]
  inhibition: 10.2%
[20]
  residual activity: 100%
[21]
  residual activity: 100%
[22]
  residual activity: 83%
[23]
  residual activity: 100%
[24]
  residual activity: 100%
[25]
  residual activity: 95%
[26]
  residual activity: 100%
[27]
  residual activity: 80%
[28]
  residual activity: 100%
[29]
  residual activity: 81%
[30]
  residual activity: 98%
[31]
  residual activity: 93%
[32]
  residual activity: 89%
[33]
  residual activity: 95%
[34]
  residual activity: 100%
[35]
  residual activity: 97%
[36]
  residual activity: 90%
[37]
  residual activity: 74%
[38]
  residual activity: 96%
[39]
  residual activity: 85%
[40]
  residual activity: 96%
[41]
  residual activity: 100%
[42]
  residual activity: 92%
[43]
  residual activity: 100%
[44]
  inhibition: 53.2%
[45]
  residual activity: 100%
